{"source": "patent US6461997B1", "about": "“Triazole sulfones having herbicidal activity” (Monsanto Technology LLC, priority 1999, dated 2002)", "key": {"[1]": {"test_system": "LAMPU (purple deadnettle)", "assay": "Pre-emergence herbicidal activity, cool season", "format": "in vivo, Lamium purpureum", "details": "lowest tested rate with 80% or greater inhibition; rates 300, 100, 30, 10 g/ha; about 14 days", "procedure,_shortened": "(§1)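 GR80 values derive from percent inhibition relative to untreated plants, read roughly 14 days after sowing and pre-emergence soil-surface treatment (compound in 50:50 acetone/water; rates typically 10, 30, 100, 300 g/ha). Warm-season weeds grew at 30/21° C day/night, cool-season ones at 18/13° C; an asterisk marks activity without reaching 80% at the highest rate.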"}, "SOLNI (black nightshade) [2]": {"test_system": "SOLNI (black nightshade)", "assay": "Pre-plant incorporated (PPI) herbicidal activity, warm season", "format": "in vivo, Solanum nigrum", "description": "(§2) In another set of tests, the pre-plant incorporated (PPI) activity of compounds of this invention was evaluated on the same species as for the pre-emergence tests described above. In the PPI tests the following procedure, designed to simulate PPI application, was used.\n(§3) A pre-prepared topsoil mixture (described above) was placed in a pot and compacted to a depth of 1.0 to 1.25 cm from the top of the pot. Seeds of each of several monocotyledonous and dicotyledonous annual plant species were placed on top of the soil. A sufficient quantity of soil to cover the seeds and level fill the pot was weighed into an open container. A known amount of the test compound was dissolved or suspended in an organic solvent and applied by spraying to this cover soil. The cover soil was thoroughly mixed to distribute the test compound throughout the cover soil, and was then applied as a cover layer over the seeds. Untreated soil was used as a cover layer for control pots. After treatment the plants were placed in a greenhouse where they received 0.64 cm of overhead irrigation. All subsequent watering consisted of a light overhead mist and/or subirrigation as needed for germination and growth. Tables 9 and 10 below relate to warm season plant species which were placed after pre-emergence treatment in a greenhouse with a 30/21° C. day/night temperature regime. Tables 11 and 12 below relates to cool season plant species placed after pre-emergence treatment in a greenhouse or growth chamber with an 18/13° C. day/night temperature regime. Only the compounds of Examples 1, 6, 8, 11, 13 and 15-20 were included in PPI tests.\n(§4) Approximately 14 days after planting and treating, the plants were observed and herbicidal efficacy recorded as percent inhibition by comparison with untreated plants."}, "ABUTH (velvetleaf)": {"test_system": "ABUTH (velvetleaf)", "assay": "Pre-plant incorporated (PPI) herbicidal activity, warm season", "format": "in vivo, Abutilon theophrasti", "description": "as §2, §3, §4"}, "SETFA (giant foxtail) [3]": {"test_system": "SETFA (giant foxtail)", "assay": "Pre-emergence herbicidal activity, warm season", "format": "in vivo, Setaria faberi", "details": "GR80 = lowest tested rate (300, 100, 30, 10 g/ha) with 80% or greater inhibition; approx. 14 days after treating; 30/21° C.", "procedure,_shortened": "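Activity is expressed as the rate giving 80% inhibition, with 300, 100, 30 and 10 g/ha typically tested. An asterisk marks activity short of 80% at the top rate. Warm-season grasses were held at 30/21 °C; cool-season blackgrass and wild buckwheat at 18/13 °C; scoring at about 14 days.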"}, "oilseed rape (BRSNS)": {"test_system": "oilseed rape (BRSNS)", "assay": "Selectivity test, PPI, cool season crop", "format": "in vivo, Brassica napus", "details": "Brassica napus, PPI application, read-out: Percent inhibition BRSNS", "description": "as §3, §4\nAdditional pre-emergence and PPI tests were conducted by the procedures described above, on warm and cool season weed species in the presence of crop species, to assess herbicidal selectivity. Crop species included in warm season tests were corn (Zea mays, ZEAMX), rice (Oryza sativa, ORYSA) and soybean (Glycine max, GLYMX). Crop species included in cool season tests were wheat (Triticum aestivum, TRZAW), barley (Hordeunm vulgare, HORVX) and oilseed rape (Brassica napus, BRSNS).\nTables 15 and 16 relate to pre-emergence and PPI tests respectively on warm season species. Table 17 relates to pre-emergence tests on cool season species."}, "BROTE (downy brome)": {"test_system": "BROTE (downy brome)", "assay": "Pre-plant incorporated (PPI) herbicidal activity, cool season", "format": "in vivo, Bromus tectorum", "description": "as §2, §3, §4"}, "[4]": {"test_system": "GALAP (catchweed bedstraw)", "assay": "Pre-emergence herbicidal activity, cool season", "format": "in vivo, Galium aparine", "details": "lowest tested rate with 80% or greater inhibition; rates 300, 100, 30, 10 g/ha; about 14 days", "procedure,_shortened": "as §1"}, "SETFA (giant foxtail) [5]": {"test_system": "SETFA (giant foxtail)", "assay": "Pre-plant incorporated (PPI) herbicidal activity, warm season", "format": "in vivo, Setaria faberi", "description": "as §2, §3, §4"}, "[6]": {"test_system": "CHEAL (common lambsquarters)", "assay": "Pre-emergence herbicidal activity, warm season", "format": "in vivo, Chenopodium album", "details": "GR80 = lowest tested rate (300, 100, 30, 10 g/ha) with 80% or greater inhibition; approx. 14 days after treating; 30/21° C.", "procedure,_shortened": "as §1"}, "SINAR (wild mustard)": {"test_system": "SINAR (wild mustard)", "assay": "Pre-plant incorporated (PPI) herbicidal activity, cool season", "format": "in vivo, Sinapis arvensis", "description": "as §2, §3, §4"}, "SOLNI (black nightshade) [7]": {"test_system": "SOLNI (black nightshade)", "assay": "Pre-emergence herbicidal activity, warm season", "format": "in vivo, Solanum nigrum", "details": "GR80 = lowest tested rate (300, 100, 30, 10 g/ha) with 80% or greater inhibition; approx. 14 days after treating; 30/21° C.", "procedure,_shortened": "as §1"}, "[8]": {"details": "pre-plant incorporated, GR80 = lowest tested rate with 80% or greater inhibition, approx. 14 days after treating, 30/21° C."}, "[9]": {"details": "pre-plant incorporated, lowest tested rate with 80% or greater inhibition, about 14 days"}}, "data": [{"molecule": "C=CCC(F)(F)S(=O)(=O)c1ncn(C(=O)N(CC)CC)n1", "note": "[Example 17, 1-(N,N-diethylcarbamoyl)-3-[(1,1-difluoro-3-butenyl)sulfonyl]-1,2,4-triazole]", "values": [{"measurement": "Pre-emergence activity GR80, LAMPU", "setting": "[1]", "result": 100, "unit": "g/ha"}, {"measurement": "inhibition at 10 g/ha", "setting": "SOLNI (black nightshade) [2]; Solanum nigrum, PPI application, 10 g/ha, read-out: Percent inhibition SOLNI", "result": 0, "unit": "%"}, {"measurement": "inhibition at 30 g/ha", "setting": "SOLNI (black nightshade) [2]; Solanum nigrum, PPI application, 30 g/ha, read-out: Percent inhibition SOLNI", "result": 0, "unit": "%"}, {"measurement": "inhibition at 100 g/ha", "setting": "SOLNI (black nightshade) [2]; Solanum nigrum, PPI application, 100 g/ha, read-out: Percent inhibition SOLNI", "result": 80, "unit": "%"}, {"measurement": "inhibition at 300 g/ha", "setting": "SOLNI (black nightshade) [2]; Solanum nigrum, PPI application, 300 g/ha, read-out: Percent inhibition SOLNI", "result": 70, "unit": "%"}, {"measurement": "inhibition at 900 g/ha", "setting": "SOLNI (black nightshade) [2]; Solanum nigrum, PPI application, 900 g/ha, read-out: Percent inhibition SOLNI", "result": 100, "unit": "%"}, {"measurement": "PPI activity (GR80) SOLNI", "setting": "SOLNI (black nightshade) [2]; [8]", "result": 30, "unit": "g/ha"}, {"measurement": "inhibition at 10 g/ha", "setting": "ABUTH (velvetleaf); Abutilon theophrasti, PPI application, 10 g/ha, read-out: Percent inhibition ABUTH", "result": 0, "unit": "%"}, {"measurement": "inhibition at 30 g/ha", "setting": "ABUTH (velvetleaf); Abutilon theophrasti, PPI application, 30 g/ha, read-out: Percent inhibition ABUTH", "result": 0, "unit": "%"}, {"measurement": "inhibition at 100 g/ha", "setting": "ABUTH (velvetleaf); Abutilon theophrasti, PPI application, 100 g/ha, read-out: Percent inhibition ABUTH", "result": 0, "unit": "%"}, {"measurement": "inhibition at 300 g/ha", "setting": "ABUTH (velvetleaf); Abutilon theophrasti, PPI application, 300 g/ha, read-out: Percent inhibition ABUTH", "result": 40, "unit": "%"}, {"measurement": "inhibition at 900 g/ha", "setting": "ABUTH (velvetleaf); Abutilon theophrasti, PPI application, 900 g/ha, read-out: Percent inhibition ABUTH", "result": 100, "unit": "%"}, {"measurement": "PPI activity (GR80) ABUTH", "setting": "ABUTH (velvetleaf); [8]", "result": 100, "unit": "g/ha"}, {"measurement": "Pre-emergence activity (GR80) SETFA", "setting": "SETFA (giant foxtail) [3]", "result": 100, "unit": "g/ha"}, {"measurement": "inhibition at 10 g/ha", "setting": "oilseed rape (BRSNS); 10 g/ha", "result": 0, "unit": "%"}, {"measurement": "inhibition at 30 g/ha", "setting": "oilseed rape (BRSNS); 30 g/ha", "result": 0, "unit": "%"}, {"measurement": "inhibition at 100 g/ha", "setting": "oilseed rape (BRSNS); 100 g/ha", "result": 0, "unit": "%"}, {"measurement": "inhibition at 300 g/ha", "setting": "oilseed rape (BRSNS); 300 g/ha", "result": 60, "unit": "%"}, {"measurement": "inhibition at 900 g/ha", "setting": "oilseed rape (BRSNS); 900 g/ha", "result": 95, "unit": "%"}, {"measurement": "inhibition at 10 g/ha", "setting": "BROTE (downy brome); Bromus tectorum, weed, PPI application, 10 g/ha, read-out: Percent inhibition BROTE", "result": 0, "unit": "%"}, {"measurement": "inhibition at 30 g/ha", "setting": "BROTE (downy brome); Bromus tectorum, weed, PPI application, 30 g/ha, read-out: Percent inhibition BROTE", "result": 0, "unit": "%"}, {"measurement": "inhibition at 100 g/ha", "setting": "BROTE (downy brome); Bromus tectorum, weed, PPI application, 100 g/ha, read-out: Percent inhibition BROTE", "result": 20, "unit": "%"}, {"measurement": "inhibition at 300 g/ha", "setting": "BROTE (downy brome); Bromus tectorum, weed, PPI application, 300 g/ha, read-out: Percent inhibition BROTE", "result": 30, "unit": "%"}, {"measurement": "inhibition at 900 g/ha", "setting": "BROTE (downy brome); Bromus tectorum, weed, PPI application, 900 g/ha, read-out: Percent inhibition BROTE", "result": 95, "unit": "%"}, {"measurement": "PPI activity GR80, BROTE", "setting": "BROTE (downy brome); [9]", "result": 100, "unit": "g/ha"}, {"measurement": "Pre-emergence activity GR80, GALAP", "setting": "[4]", "result": 100, "unit": "g/ha"}, {"measurement": "inhibition at 10 g/ha", "setting": "SETFA (giant foxtail) [5]; Setaria faberi, PPI application, 10 g/ha, read-out: Percent inhibition SETFA", "result": 100, "unit": "%"}, {"measurement": "inhibition at 30 g/ha", "setting": "SETFA (giant foxtail) [5]; Setaria faberi, PPI application, 30 g/ha, read-out: Percent inhibition SETFA", "result": 100, "unit": "%"}, {"measurement": "inhibition at 100 g/ha", "setting": "SETFA (giant foxtail) [5]; Setaria faberi, PPI application, 100 g/ha, read-out: Percent inhibition SETFA", "result": 100, "unit": "%"}, {"measurement": "inhibition at 300 g/ha", "setting": "SETFA (giant foxtail) [5]; Setaria faberi, PPI application, 300 g/ha, read-out: Percent inhibition SETFA", "result": 100, "unit": "%"}, {"measurement": "inhibition at 900 g/ha", "setting": "SETFA (giant foxtail) [5]; Setaria faberi, PPI application, 900 g/ha, read-out: Percent inhibition SETFA", "result": 100, "unit": "%"}, {"measurement": "PPI activity GR80, SETFA", "setting": "SETFA (giant foxtail) [5]; [9]", "result": 10, "unit": "g/ha"}, {"measurement": "Pre-emergence activity (GR80) CHEAL", "setting": "[6]", "result": 100, "unit": "g/ha"}, {"measurement": "inhibition at 10 g/ha", "setting": "SINAR (wild mustard); Brassica, weed, PPI application, 10 g/ha, read-out: Percent inhibition SINAR", "result": 70, "unit": "%"}, {"measurement": "inhibition at 30 g/ha", "setting": "SINAR (wild mustard); Brassica, weed, PPI application, 30 g/ha, read-out: Percent inhibition SINAR", "result": 70, "unit": "%"}, {"measurement": "inhibition at 100 g/ha", "setting": "SINAR (wild mustard); Brassica, weed, PPI application, 100 g/ha, read-out: Percent inhibition SINAR", "result": 90, "unit": "%"}, {"measurement": "inhibition at 300 g/ha", "setting": "SINAR (wild mustard); Brassica, weed, PPI application, 300 g/ha, read-out: Percent inhibition SINAR", "result": 100, "unit": "%"}, {"measurement": "inhibition at 900 g/ha", "setting": "SINAR (wild mustard); Brassica, weed, PPI application, 900 g/ha, read-out: Percent inhibition SINAR", "result": 100, "unit": "%"}, {"measurement": "PPI activity GR80, SINAR", "setting": "SINAR (wild mustard); [9]", "result": 30, "unit": "g/ha"}, {"measurement": "Pre-emergence activity (GR80) SOLNI", "setting": "SOLNI (black nightshade) [7]", "result": 100, "unit": "g/ha"}]}]}
